For data set [1], the system named is Pr. morganii (1 strain), Ent. cloacae (2 strains) and Ser. marcescens (2 strains). Description: MIC, two-fold serial agar dilution, group (G-)-II. The note with it: read-out: Geometric Mean of MIC (G-)-II (5). The format is cell-based. The protocol:
(§1) In the primary evaluation of the compounds of this invention, the Minimum Inhibitory Concentrations (MIC's) of the compounds and two reference compounds (cefotaxime and ceftazidime) were determined by the two-fold serial agar dilution method in Mueller-Hinton agar against 32 strains of test organisms in six groups.

In another data set the test system is Proteus vulgaris. Description: MIC, resistant Enterobacteriaceae, Proteus vulgaris. The note with it: read-out: Geometric Mean MIC. Format: cell-based.
For data set [2], the system named is Penicillinresistant S. aureus (5 strains). Briefly: MIC, two-fold serial agar dilution, group (G+)-Ib. The format is cell-based. To be noted: Staphylococcus aureus, read-out: Geometric Mean of MIC (G+)-Ib (5). The protocol: as §1
(G+)Ib: Penicillinresistant S. aureus (5 strains)

The subject of data set [3] is 240 strains of Enterobacteriaceae. The note with it: resistant: MIC ≥8 μg/ml; 27 of 240 strains resistant to at least one compound.
In a further data set the test system is Enterobacter aerogenes. Description: MIC, resistant Enterobacteriaceae, Enterobacter aerogenes. Format: cell-based. The note with it: Klebsiella aerogenes.
Data set [4] relates to Ps. aeruginosa (6 strains). Description: MIC, two-fold serial agar dilution, group (G-)-III. Format: cell-based. To be noted: for MIC: Pseudomonas aeruginosa, read-out: Geometric Mean of MIC (G-)-III (6). As to the method:
as §1

A further data set concerns Enterobacter cloacae. Description: MIC, resistant Enterobacteriaceae, Enterobacter cloacae. Format: cell-based.
A further data set deals with Citrobacter species. Description: MIC, resistant Enterobacteriaceae, Citrobacter species. The format is cell-based. The note with it: read-out: Geometric Mean MIC.
The test system of the next data set is Citrobacter freundii. Description: MIC, resistant Enterobacteriaceae, Citrobacter freundii. To be noted: read-out: Geometric Mean MIC. The format is cell-based.
The subject of a further data set is Morganella morganii. Briefly: MIC, resistant Enterobacteriaceae, Morganella morganii. The format is cell-based. The note with it: read-out: Geometric Mean MIC.
Data set [5] has as its system Cephalothinresistant E. coli (3 strains) and Kl. pneumoniae (3 strains). Description: MIC, two-fold serial agar dilution, group (G-)-Ib. Format: cell-based. To be noted: Escherichia coli, read-out: Geometric Mean of MIC (G-)-Ib (6). As to the method:
as §1

The test system of the next data set is Klebsiella pneumoniae. Description: MIC, resistant Enterobacteriaceae, Klebsiella pneumoniae. The note with it: read-out: Geometric Mean MIC. Format: cell-based.
Data set [6] concerns Cephalothinsensitive E. coli (2 strains), Kl. pneumoniae (1 strain) and Pr. mirabilis (2 strains). Briefly: MIC, two-fold serial agar dilution, group (G-)-Ia. The format is cell-based. To be noted: Mueller-Hinton agar; cephalothin-sensitive; read-out: Geometric Mean of MIC (G-)-Ia (5). The protocol: The preferred compounds of Formula I are those in which R^1 is hydrogen and R^2 is methyl or ethyl. In the most preferred compound, R^2 is methyl. In the primary evaluation of the compounds of this invention, the Minimum Inhibitory Concentrations (MIC's) of the compounds and two reference compounds (cefotaxime and ceftazidime) were determined by the two-fold serial agar dilution method in Mueller-Hinton agar against 32 strains of test organisms in six groups.
(G-)Ia: Cephalothinsensitive E. coli (2 strains), Kl. pneumoniae (1
strain) and Pr. mirabilis (2 strains)

The next data set relates to Serratia marcescens. Description: MIC, resistant Enterobacteriaceae, Serratia marcescens. The format is cell-based.
In another data set the test system is Escherichia coli. Briefly: MIC, resistant Enterobacteriaceae, Escherichia coli. Format: cell-based.
The nature of data set [7]: Blood levels after single intramuscular administration to mice. The note with it: mouse, blood, im, 20 mg/kg. An excerpt: Blood samples were collected from the orbital sinuses into heparinized capillary tubes and assayed in Mueller-Hinton medium using Morganella morganii A9695 as the test organism.
For data set [8], the system named is Penicillinsensitive S. aureus (5 strains). Briefly: MIC, two-fold serial agar dilution, group (G+)-Ia. The format is cell-based. The note with it: Staphylococcus aureus, read-out: Geometric Mean of MIC (G+)-Ia (5 strains). The protocol: as §1
Where [9] appears, read: read-out: Geometric Mean MIC, Mueller-Hinton medium, 3 strains.
Setting [10] is: read-out: Geometric Mean MIC, Mueller-Hinton medium, 1 strain (first E. cloacae line).
[11] abbreviates: read-out: Geometric Mean MIC, Mueller-Hinton medium, 1 strain (fourth E. cloacae line).
Setting [12] is: read-out: Geometric Mean MIC, Mueller-Hinton medium, 3 strains (third E. cloacae line).
The mark [13] stands for this setting: read-out: Geometric Mean MIC, Mueller-Hinton medium, 1 strain (first S. marcescens line).
The mark [14] stands for this setting: read-out: Geometric Mean MIC, Mueller-Hinton medium, 1 strain (fourth S. marcescens line).
[15] abbreviates: read-out: Geometric Mean MIC, Mueller-Hinton medium, 1 strain (second S. marcescens line).
Where [16] appears, read: read-out: Geometric Mean MIC, Mueller-Hinton medium, 1 strain (sixth S. marcescens line).
Where [17] appears, read: Mueller-Hinton agar, Ps. aeruginosa.
Setting [18] is: Mueller-Hinton agar, penicillin-sensitive S. aureus.
[19] abbreviates: Mueller-Hinton medium, 1 strain.

Values after ≈ are worked out from the molar mass of the structure shown. Where two headings read alike, the source gives them in different places.

With `CC(C)(O/N=C(\C(=O)N[C@@H]1C(=O)N2C(C(=O)[O-])=C(C[n+]3ccccc3)CS[C@H]12)c1csc(N)n1)C(=O)O` [Ceftazidime], the MIC in [1] came to 2.6 µg/mL (≈ 4.76 µM); in the data set on Proteus vulgaris, 8 µg/mL (≈ 14.6 µM); in [2] it was 12 µg/mL (≈ 22 µM); in the data set on Enterobacter aerogenes (read-out: Geometric Mean MIC, Mueller-Hinton medium, 1 strain), 8 µg/mL (≈ 14.6 µM); in the data set on Enterobacter aerogenes (setting [9]), 32 µg/mL (≈ 58.5 µM); in data set [4], 1.8 µg/mL (≈ 3.29 µM). The MIC in the data set on Enterobacter cloacae (setting [10]) is 4 µg/mL (≈ 7.32 µM); with Enterobacter cloacae (setting [11]) it was over 63 µg/mL; in the data set with Enterobacter cloacae (read-out: Geometric Mean MIC, Mueller-Hinton medium, 3 strains (second E. cloacae line)), 40 µg/mL (≈ 73.2 µM); with Enterobacter cloacae (setting [12]), over 63 µg/mL; in the data set with Citrobacter species it was over 63 µg/mL; in the data set with Citrobacter freundii, 45 µg/mL (≈ 82.3 µM). Also, the minimal inhibitory concentration (MIC) with Morganella morganii worked out at 32 µg/mL (≈ 58.5 µM); in [5], 1.7 µg/mL (≈ 3.11 µM); in the data set on Klebsiella pneumoniae it was 16 µg/mL (≈ 29.3 µM); in data set [6], 0.07 µg/mL (≈ 0.128 µM); with Serratia marcescens (read-out: Geometric Mean MIC, Mueller-Hinton medium, 1 strain (fifth S. marcescens line)), 16 µg/mL (≈ 29.3 µM); with Serratia marcescens (setting [13]) it was 1 µg/mL (≈ 1.83 µM). Further, the minimum inhibitory concentration (MIC) in the data set on Serratia marcescens (setting [14]) is 8 µg/mL (≈ 14.6 µM); in the data set with Serratia marcescens (setting [15]), 8 µg/mL (≈ 14.6 µM); in the data set on Serratia marcescens (setting [16]), over 63 µg/mL; in the data set on Serratia marcescens (read-out: Geometric Mean MIC, Mueller-Hinton medium, 2 strains (third S. marcescens line)), 2 µg/mL (≈ 3.66 µM); in the data set with Escherichia coli (read-out: Geometric Mean MIC) it was 32 µg/mL (≈ 58.5 µM); in the data set with Escherichia coli (read-out: Geometric Mean MIC, Mueller-Hinton medium, 1 strain (second E. coli line)) it was 0.5 µg/mL (≈ 0.915 µM). Further, the MIC in data set [8] turned out to be 5.1 µg/mL (≈ 9.33 µM). For the same compound, the “Total Number of Resistant Strains” value in [3] stood at 15. In addition, the “susceptibility of (G-)-III group, ceftazidime compared with Compound Ia” value in data set [4] (comparison of geometric mean MICs) is on record as “somewhat more susceptible to ceftazidime”. In addition, in [7], the AUC is 13800 ng·h/mL. The same compound displayed a concentration at 10 min in data set [7] of 21500 ng/mL. In addition, the concentration at 20 min in [7] was 18400 ng/mL. Further, the concentration at 0.5 h in [7] turned out to be 14900 ng/mL. Moreover, the concentration at 0.75 h in data set [7] was determined as 8700 ng/mL. Further, in data set [7], the concentration at 1 h stood at 4400 ng/mL. In addition, the concentration at 1.5 h in data set [7] is about 800 ng/mL. In addition, the half-life in [7] was 17 min.
Regarding `C=CCO/N=C(\C(=O)NC1C(=O)N2C(C(=O)[O-])=C(C[N+]3(C)CCCC3)CSC12)c1csc(N)n1` (stereo not drawn) [Id, 7-[(Z)-2-Allyloxyimino-2-(2-aminothiazol-4-yl)acetamido]-3-[(1-methyl-1-pyrrolidinium)methyl]-3-cephem-4-carboxylate], the MIC in data set [1] (Mueller-Hinton agar) was 2.4 µg/mL (≈ 4.74 µM); in [2], 3.6 µg/mL (≈ 7.11 µM); in data set [4] (setting [17]), 13 µg/mL (≈ 25.7 µM); in [5] it was 1.1 µg/mL (≈ 2.17 µM); in [6], 0.53 µg/mL (≈ 1.05 µM); in data set [8] (setting [18]), 1.8 µg/mL (≈ 3.55 µM).
Take `CO/N=C(\C(=O)N[C@@H]1C(=O)N2C(C(=O)O)=C(COC(C)=O)CS[C@H]12)c1csc(N)n1` [Cefotaxime]: the MIC in data set [1] (Mueller-Hinton agar) was found to be 4.1 µg/mL (≈ 9 µM); in the data set with Proteus vulgaris (setting [19]), 8 µg/mL (≈ 17.6 µM); in [2], 2.2 µg/mL (≈ 4.83 µM); in the data set with Enterobacter aerogenes (Mueller-Hinton medium, 1 strain, read-out: Geometric Mean MIC), 32 µg/mL (≈ 70.3 µM); in the data set on Enterobacter aerogenes (setting [9]), 13 µg/mL (≈ 28.5 µM); in data set [4] (setting [17]), 22 µg/mL (≈ 48.3 µM). Also, the MIC in the data set on Enterobacter cloacae (Mueller-Hinton medium, 3 strains (second E. cloacae line), read-out: Geometric Mean MIC) is 50 µg/mL (≈ 110 µM); with Enterobacter cloacae (setting [10]) it was 8 µg/mL (≈ 17.6 µM); in the data set with Enterobacter cloacae (setting [11]), over 63 µg/mL; in the data set with Enterobacter cloacae (setting [12]), over 63 µg/mL; with Citrobacter species (setting [19]), 32 µg/mL (≈ 70.3 µM); in the data set on Citrobacter freundii (Mueller-Hinton medium, 2 strains), 32 µg/mL (≈ 70.3 µM). In addition, the MIC in the data set on Morganella morganii (setting [19]) came to 32 µg/mL (≈ 70.3 µM); in [5], 0.35 µg/mL (≈ 0.768 µM); in the data set on Klebsiella pneumoniae (setting [19]), 0.13 µg/mL (≈ 0.285 µM); in data set [6], 0.015 µg/mL (≈ 0.0329 µM); in the data set with Serratia marcescens (Mueller-Hinton medium, 1 strain (fifth S. marcescens line), read-out: Geometric Mean MIC), 8 µg/mL (≈ 17.6 µM); with Serratia marcescens (Mueller-Hinton medium, 2 strains (third S. marcescens line), read-out: Geometric Mean MIC), 11 µg/mL (≈ 24.2 µM). Moreover, the MIC in the data set with Serratia marcescens (setting [13]) was 16 µg/mL (≈ 35.1 µM); in the data set on Serratia marcescens (setting [14]), 63 µg/mL (≈ 138 µM); with Serratia marcescens (setting [15]), 16 µg/mL (≈ 35.1 µM); in the data set with Serratia marcescens (setting [16]) it was over 63 µg/mL; with Escherichia coli (Mueller-Hinton medium, 1 strain (first E. coli line), read-out: Geometric Mean MIC), 8 µg/mL (≈ 17.6 µM); with Escherichia coli (Mueller-Hinton medium, 1 strain (second E. coli line), read-out: Geometric Mean MIC), 8 µg/mL (≈ 17.6 µM). Further, the MIC in data set [8] (setting [18]) stood at 1 µg/mL (≈ 2.2 µM). The “Total Number of Resistant Strains” value in data set [3] is on record as 18. This compound also registered an area under the curve (AUC) in data set [7] of 14900 ng·h/mL. In data set [7], this compound registered a concentration at 10 min of 27800 ng/mL. In [7], this compound gave a concentration at 20 min of 19300 ng/mL. In data set [7], this compound registered a concentration at 0.5 h of 13000 ng/mL. The same compound had a concentration at 0.75 h in data set [7] of 9100 ng/mL. The concentration at 1 h in [7] was found to be 4600 ng/mL. Also, the concentration at 1.5 h in data set [7] stood at 1200 ng/mL. This compound registered a half-life in [7] of 15 min.
Regarding `CC(C)O/N=C(\C(=O)NC1C(=O)N2C(C(=O)[O-])=C(C[N+]3(C)CCCC3)CSC12)c1csc(N)n1` (stereo not drawn) [Compound Ic, 7-[(Z)-2-(2-Propoxyimino)-2-(2-aminothiazol-4-yl)acetamido]-3-[(1-methyl-1-pyrrolidinium)methyl]-3-cephem-4-carboxylate], the MIC in data set [1] (Mueller-Hinton agar) came to 3.2 µg/mL (≈ 6.29 µM); in data set [2] it was 3.6 µg/mL (≈ 7.08 µM); in [4] (setting [17]), 11 µg/mL (≈ 21.6 µM); in data set [5], 1.3 µg/mL (≈ 2.56 µM); in [6], 0.35 µg/mL (≈ 0.688 µM); in data set [8] (setting [18]) it was 1.4 µg/mL (≈ 2.75 µM).
For the compound `CCO/N=C(\C(=O)NC1C(=O)N2C(C(=O)[O-])=C(C[N+]3(C)CCCC3)CSC12)c1csc(N)n1` (stereo not drawn) [Ib, 7-[(Z)-2-Ethoxyimino-2-(2-aminothiazol-4-yl)acetamido]-3-[(1-methyl-1-pyrrolidinium)methyl]-3-cephem-4-carboxylate], the MIC in data set [1] (Mueller-Hinton agar) stood at 1 µg/mL (≈ 2.02 µM); in [2] it was 3.1 µg/mL (≈ 6.27 µM); in [4] (setting [17]), 5.6 µg/mL (≈ 11.3 µM); in [5] it was 0.32 µg/mL (≈ 0.647 µM); in data set [6], 0.087 µg/mL (≈ 0.176 µM); in data set [8] (setting [18]), 1.4 µg/mL (≈ 2.83 µM).

(Values after patent US4406899A, “Cephalosporins” (Bristol-Myers Company, priority 1982, dated 1983).)
